Laboratory results: US20230086833A1, “DEFIBROTIDE TREATMENT FOR THE PREVENTION OF ORGAN REJECTION AND INJURY” (Jazz Pharmaceuticals Ireland Limited, priority 2020, published 2023)

Test system: autologous dog kidney transplant model for IRI
Assay: Autologous dog kidney transplant model for ischaemia reperfusion injury (IRI)
Type: in vivo
Description: An autologous dog kidney transplant model for IRI was developed (FIG. 1). The right kidney was removed from a dog at day 0 of the study and was exposed to cold ischemia for 32 hours. After exposure to cold ischemia, the right kidney developed IRI. Subsequently, in an autotransplant, the right kidney was implanted, and the left kidney was removed. Defibrotide was administered to the dog prior to transplant and after transplant four times per day for 7 days at doses of 3 mg/kg, 10 mg/kg, or 25 mg/kg. Clinical endpoints were evaluated, including bleeding at the anastomosis site, coagulation, renal function labs, serum creatinine, blood urea nitrogen (BUN), histopathology at sacrifice, and the measurement of biomarkers, including endothelin-1, Kim-1, ICAM-1, E-selectin, t-PA, PAI-1, Thrombomodulin, IL-6, TNF-α, MCP-1, and A2M.
The gross dog kidney morphology was evaluated at the termination of the study.
The creatinine level, a marker of renal function, was measured pre-transplant and post-transplant after treatment with saline control, 3 mg/kg, 10 mg/kg, or 25 mg/kg of defibrotide. […] Each curve represents a different dog.

Substance: defibrotide
- severity of hemorrhage after IRI (FIG. 2, dose response) (after higher doses of defibrotide, saline control): the severity of hemorrhage lessened
- creatinine levels (marker of renal function, FIG. 3) (after six days of defibrotide, 3, 10 or 25 mg/kg, post-transplant): decreased to levels just above normal
- hemorrhage, gross dog kidney morphology at the termination of the study (higher doses of defibrotide (3, 10 or 25 mg/kg, four times per day for 7 days), kidney exposed to cold ischemia for 32 hours): Minimal hemorrhage
- renal function post IRI (higher doses of defibrotide, after transplant): improved renal function
